How the values were obtained:
Assay type in all cases: binding
[1] = target: T1, human galectin-3 (Homo sapiens, UniProt P17931); assay: competitive fluorescence polarization assay, galectin-3; details: Table 2; average and SEM; PBS
T1 construct: made in house; host or cells: vector pET3c (the same vector as galectin-7)
Excerpt: (§1) Human galectin-1 [25], galectin-2 [26], galectin-3 [27], galectin-4N [19], galectin-4C [19], galectin-8N [28], galectin-8C [28], galectin-9N [29], and galectin-9C [30], were expressed and purified as described earlier. Human galectin-7 was expressed using a pET3c plasmid in E. coli BL21-star. The plasmid containing expression optimized DNA encoding the full human galectin-7 sequence (NCBI Reference Sequence: NP_002298.1) was obtained from GenScript (Piscataway, NJ, USA). […] Lactose was removed by chromatography on a PD-10 column (Amersham Biosciences) with repeated ultrafiltration with Centriprep (Amicon).
(§2) Fluorescence polarization experiments were carried out either with a POLARStar plate reader and FLUOstar Galaxy software or with a PheraStarFS plate reader and PHERAstar Mars version 2.10 R3 software (BMG, Offenburg, Germany). The dissociation constant (Kd) values were determined in PBS as described earlier. Specific conditions for galectin-1, 2, 3, 4N, 4C, 8N, 8C, 9N, and 9C were kept as reported. Experiments were performed at room temperature with human galectin-7 at 5 µM and the fluorescent probe β-D-galactopyranosyl-(1–4)-2-acetamido-2-deoxy-β-d-glucopyranosyl-(1–3)-β-d-galactopyranosyl-(1–4)-(N1-fluorescein-5-yl-carbonylaminomethylcarbonyl)-β-D-glucopyranosylamine at 0.02 µM. All the compounds in Table 1 except 32 were dissolved in a neat DMSO at 100 mM and diluted in PBS to three to six different concentrations to be tested in duplicate.

[2] = target: T2, human galectin-4C (C-terminal domain) (Homo sapiens, UniProt P56470); assay: competitive fluorescence polarization assay, galectin-4C; details: Table 2, average and SEM, PBS
T2 construct: 4N (N-terminal domain) 4C (C-terminal domain); made in house
T2 sequence (P56470 194-323 limits assumed): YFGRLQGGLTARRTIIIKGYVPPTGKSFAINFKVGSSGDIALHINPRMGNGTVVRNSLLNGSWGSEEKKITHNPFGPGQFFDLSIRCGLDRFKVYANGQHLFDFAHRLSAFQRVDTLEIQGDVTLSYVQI
Excerpt: as §1, §2

[3] = target: T3, human galectin-9N (N-terminal domain) (Homo sapiens, UniProt O00182); assay: competitive fluorescence polarization assay, galectin-9N; details: Table 2, average and SEM, PBS
T3 construct: 4N (N-terminal domain) 4C (C-terminal domain), 7, 8N, 8C, 9N, and 9C; made in house
Excerpt: (§3) Human galectin-1 [25], galectin-2 [26], galectin-3 [27], galectin-4N [19], galectin-4C [19], galectin-8N [28], galectin-8C [28], galectin-9N [29], and galectin-9C [30], were expressed and purified as described earlier. Human galectin-7 was expressed using a pET3c plasmid in E. coli BL21-star. The plasmid containing expression optimized DNA encoding the full human galectin-7 sequence (NCBI Reference Sequence: NP_002298.1) was obtained from GenScript (Piscataway, NJ, USA). Bacterial culture and induction, and galectin purification was essential as described for galectin-3 expressed with the same vector [27]; a typical yield was 1.5–2 mg/L culture. Lactose was removed by chromatography on a PD-10 column (Amersham Biosciences) with repeated ultrafiltration with Centriprep (Amicon).
as §2

[4] = target: T4, human galectin-8C (C-terminal domain) (Homo sapiens, UniProt O00214); assay: competitive fluorescence polarization assay, galectin-8C; details: Table 2, average and SEM, PBS
T4 construct: 4N (N-terminal domain) 4C (C-terminal domain), 7, 8N, 8C, 9N, and 9C; made in house
T4 sequence (O00214 187-317 limits assumed): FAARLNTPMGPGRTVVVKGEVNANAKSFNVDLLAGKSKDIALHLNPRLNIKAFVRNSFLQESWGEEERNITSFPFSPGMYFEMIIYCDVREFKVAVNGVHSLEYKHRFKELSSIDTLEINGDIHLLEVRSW
Excerpt: as §1, §2

[5] = target: T5, human galectin-7 (Homo sapiens, UniProt P47929); assay: competitive fluorescence polarization assay, galectin-7; details: Table 2; average and SEM; PBS, room temperature, galectin-7 at 5 µM, probe 0.02 µM
T5 construct: made in house; host or cells: E. coli BL21-star, pET3c plasmid (DNA from GenScript)
Excerpt: as §3, §2

[6] = target: T6, human galectin-8N (N-terminal domain) (Homo sapiens, UniProt O00214); assay: competitive fluorescence polarization assay, galectin-8N; details: Table 2, average and SEM, PBS
T6 construct: 4N (N-terminal domain) 4C (C-terminal domain), 7, 8N, 8C, 9N, and 9C; made in house
T6 sequence (O00214 19-152 limits assumed): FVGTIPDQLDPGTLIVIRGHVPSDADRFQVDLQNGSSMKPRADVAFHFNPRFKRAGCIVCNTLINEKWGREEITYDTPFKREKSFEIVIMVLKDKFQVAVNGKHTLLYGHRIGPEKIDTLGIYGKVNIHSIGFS
Excerpt: as §1, §2

[7] = target: T7, human galectin-4N (N-terminal domain) (Homo sapiens, UniProt P56470); assay: competitive fluorescence polarization assay, galectin-4N; details: Table 2; N-terminal domain; average and SEM; PBS
T7 construct: 4N (N-terminal domain) 4C (C-terminal domain); made in house
T7 sequence (P56470 19-150 limits assumed): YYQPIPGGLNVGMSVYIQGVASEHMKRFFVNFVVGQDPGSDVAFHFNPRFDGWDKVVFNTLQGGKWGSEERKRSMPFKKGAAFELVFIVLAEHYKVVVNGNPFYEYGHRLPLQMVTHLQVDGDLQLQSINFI
Excerpt: as §3, §2

[8] = target: T8, human galectin-1 (Homo sapiens, UniProt P09382); assay: competitive fluorescence polarization assay, galectin-1; details: for Kd: Table 2, average and SEM of 4–8 single-triple point measurements, PBS
T8 construct: made in house
Excerpt: as §1, §2

[9] = target: T9, human galectin-2 (Homo sapiens, UniProt P05162); assay: competitive fluorescence polarization assay, galectin-2; details: Table 2; average and SEM; PBS
T9 construct: made in house
T9 sequence (P05162 1-132): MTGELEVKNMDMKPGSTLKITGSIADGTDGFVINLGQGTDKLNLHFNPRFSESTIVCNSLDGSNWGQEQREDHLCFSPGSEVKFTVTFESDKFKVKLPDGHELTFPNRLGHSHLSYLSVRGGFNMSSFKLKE
Excerpt: as §3, §2

[10] = target: T10, human galectin-9C (C-terminal domain) (Homo sapiens, UniProt O00182); assay: competitive fluorescence polarization assay, galectin-9C; details: Table 2, average and SEM, PBS
T10 construct: 4N (N-terminal domain) 4C (C-terminal domain), 7, 8N, 8C, 9N, and 9C; made in house
Excerpt: as §1, §2

T1 sequence (P17931 whole entry): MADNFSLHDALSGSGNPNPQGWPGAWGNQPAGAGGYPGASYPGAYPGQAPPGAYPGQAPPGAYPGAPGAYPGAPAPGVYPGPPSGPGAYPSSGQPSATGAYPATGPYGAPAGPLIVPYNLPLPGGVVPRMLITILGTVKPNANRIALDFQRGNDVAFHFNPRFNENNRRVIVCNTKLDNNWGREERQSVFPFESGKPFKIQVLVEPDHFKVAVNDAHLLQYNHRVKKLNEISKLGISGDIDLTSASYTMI
T5 sequence (P47929 whole entry): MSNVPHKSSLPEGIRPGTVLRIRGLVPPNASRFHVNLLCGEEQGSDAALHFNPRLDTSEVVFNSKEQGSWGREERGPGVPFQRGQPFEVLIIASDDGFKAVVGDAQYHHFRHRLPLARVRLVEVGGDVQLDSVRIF
T10 sequence (O00182 227-355 limits assumed): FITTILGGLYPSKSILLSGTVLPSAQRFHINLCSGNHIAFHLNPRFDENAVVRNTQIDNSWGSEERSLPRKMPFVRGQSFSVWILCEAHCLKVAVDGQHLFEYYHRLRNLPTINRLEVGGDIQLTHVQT
T8 sequence (P09382 whole entry): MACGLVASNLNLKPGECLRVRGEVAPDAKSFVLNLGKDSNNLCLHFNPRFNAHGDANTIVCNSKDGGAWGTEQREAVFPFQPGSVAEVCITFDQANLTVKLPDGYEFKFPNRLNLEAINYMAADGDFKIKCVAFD
T3 sequence (O00182 17-148 limits assumed): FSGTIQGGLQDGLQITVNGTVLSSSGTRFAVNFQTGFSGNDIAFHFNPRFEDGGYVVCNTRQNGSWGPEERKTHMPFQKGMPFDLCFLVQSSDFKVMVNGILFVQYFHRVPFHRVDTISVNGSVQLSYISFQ

Row | Compound | Kd [1] [mM] | Kd [2] [mM] | Kd [3] [mM] | Kd [4] [mM] | Kd [5] [mM] | Kd [6] [mM] | Kd [7] [mM] | Kd [8] [mM] | Kd [9] [mM] | Kd [10] [mM] | fold better affinity for galectin-1 than reference methyl β-D-galactopyranoside 32 ([8]; ratio of Kd values) [fold] | binding to galectin-1 (in words) ([8]; under the assay conditions)
1 | CO[C@@H]1O[C@H](CO)[C@H](O)[C@H](CNC(=O)c2ccc(F)cc2)[C@H]1O [Compound 7e, Methyl 3-Deoxy-3-C-(4-Fluorobenzamidomethyl)-β-D-Galactopyranoside] | 1.6 ± 0.03 | > 4 | > 4 | > 4 | > 4 | > 4 | 1.7 ± 0.07 | 1.7 ± 0.06 | > 4 | > 4 |  | 
2 | CO[C@@H]1O[C@H](CO)[C@H](O)[C@H](CNC(=O)c2cc(F)c(F)c(F)c2)[C@H]1O [Compound 7f, Methyl 3-Deoxy-3-C-(3,4,5-Trifluorobenzamidomethyl)-β-D-Galactopyranoside] | > 4 | > 4 | > 4 | > 4 | > 4 | > 4 | > 4 | 2.5 ± 0.4 | > 4 | > 4 |  | 
3 | CO[C@@H]1O[C@H](CO)[C@H](O)[C@H](CNC(=O)c2c(F)c(F)c(F)c(F)c2F)[C@H]1O [Compound 7g, Methyl 3-Deoxy-3-C-(2,3,4,5,6-Pentafluorobenzamidomethyl)-β-D-Galactopyranoside] | > 4 | > 4 | > 4 | > 4 | > 4 | > 4 | > 4 | 0.7 ± 0.005 | > 4 | > 4 | 14 | 
4 | COc1cccc(C(=O)NC[C@H]2[C@@H](O)[C@@H](CO)O[C@@H](OC)[C@@H]2O)c1 [Compound 7h, Methyl 3-Deoxy-3-C-(3-Methoxybenzamidomethyl)-β-D-Galactopyranoside] | > 4 | > 4 | > 4 | > 4 | > 4 | > 4 | > 4 | 3.2 ± 0.5 | > 4 | > 4 |  | 
5 | CO[C@@H]1O[C@H](CO)[C@H](O)[C@H](CNC(=O)c2ccc(C)cc2)[C@H]1O [Compound 7i, Methyl 3-Deoxy-3-C-(p-Toluamidomethyl)-β-D-Galactopyranoside] | > 4 | > 4 | > 4 | > 4 | > 4 | > 4 | > 4 | 2.3 ± 0.4 | > 4 | > 4 |  | 
6 | COc1cc(OC)cc(C(=O)NC[C@H]2[C@@H](O)[C@@H](CO)O[C@@H](OC)[C@@H]2O)c1 [Compound 7j, Methyl 3-Deoxy-3-C-(3,5-Dimethoxybenzamidomethyl)-β-D-Galactopyranoside] | > 4 | > 4 | > 4 | 2.6 ± 0.6 | > 4 | > 4 | 2 ± 0.4 | 1.8 ± 0.04 | > 4 | > 4 |  | 
7 | CO[C@@H]1O[C@H](CO)[C@H](O)[C@H](CNC(=O)c2cccc(C(F)(F)F)c2)[C@H]1O [Compound 7k, Methyl 3-Deoxy-3-C-(3-Trifluoromethylbenzamidomethyl)-β-D-Galactopyranoside] | > 4 | > 4 | > 4 | > 4 | > 4 | > 4 | 1.9 ± 0.1 | 1.8 ± 0.07 | > 4 | > 4 |  | 
8 | CO[C@@H]1O[C@H](CO)[C@H](O)[C@H](CNC(=O)c2ccc(-c3ccccc3)cc2)[C@H]1O [Compound 7l, Methyl 3-Deoxy-3-C-(4-Phenylbenzamidomethyl)-β-D-Galactopyranoside] | > 4 | > 4 | > 4 | > 4 | > 4 | > 4 | > 4 | > 4 | > 4 | > 4 |  | did not bind

Source: article PMC6696278 (International Journal of Molecular Sciences, 2019)
